Test results: patent publication US6517808B1, “Methods for boron delivery to mammalian tissue” (The Regents of the University of California, priority 1993, dated 2003)

Legend:
[1] = test system: EMT6 tumors; test: murine biodistribution study (boron concentration in tissues by ICP-AES); type: in vivo, BALB/c mice
Description: The concentration of boron can be determined by inductively coupled plasma atomic emission spectroscopy (ICP-AES).
All murine biodistribution studies utilized female BALB/c mice (16-20 g), with EMT6 tumors implanted in the right flank 7-10 days prior to the experiment. […] Injections of liposome emulsions (200 μl) were made in the tail vein. Prior to sacrifice, each mouse was anesthetized with halothane and bled into heparinized syringes via cardiac puncture. The blood was then placed into tared cryogenic tubes. While under anesthesia, the mice were euthanized via cervical dislocation. The tumor, liver, and spleen were dissected and also placed in tared cryogenic tubes. Blood and tissues were stored frozen until analyzed.
Biodistributions are plotted as boron concentration in micrograms of boron per gram of tissue on the Y axis and time in hours on the X axis. In general, four tissues are analyzed: tumor and blood because of their therapeutic interest, and liver and spleen because these tissues are known to competitively bind liposomes in vivo.

[2] = chemical stability of borane anions towards water / moisture; type: physicochemical
Description: The cleanest reaction is observed employing [Ph3PMe][B10H10] in CH2Cl2, but the reaction can be used with several salts of [B10H10]^2− including preferably cesium. tetramethylammonium and triethylammoniuim and with other solvents such as acetonitrile and tetrahydrofuran. […] The substituted boron is indicated by a high field resonance at −43.8 ppm (relative to BF3. Et2O) which is a singlet in the proton coupled spectrum. [Ph3PMe][2-B10H9CO] may be isolated a a light tan solid in 85% yield, or the reaction mixture may be used directly in further reactions. […] [Ph3PMe]2[2-B10H9CO2H] has been confirmed by crystallographic analysis.
A very useful transformation of [2-B10H9CO]^− occurs from its reaction with azide ion in acetonitrile. The carbonyl undergoes a Curtius-type rearrangement to form the isocyanate [2-B10H9NCO]^2−, indicated by an infrared absorption at 2304 cm^−1. […] The [2-B10H9CO]^− ion therefore offers a high-yield route to the production of many boron-rich species for boron neutron capture therapy. Detailed protocols of preparing certain of these species is as follows: […]

Q: Which “initial distribution (accumulation) in the tumor” value ([1]; FIG. 10, free, not liposome-encapsulated, injected in buffer) does the source give for Na3B20H17NH3 [free Na3B20H17NH3] here?
A: Its value is “about 8 ppm”.

Q: With [2-B10H9CO]^− as the substance, how does the sensitivity to moisture ([2]; in the solid state or in solution) read?
A: The sensitivity to moisture was “relatively insensitive to moisture”.

Q: What does the source list for [2-B10H9NCO]^2−?
A: stability in acidic media ([2]; acidic media): rapidly hydrolyzed; stability in neutral aqueous solution ([2]; neutral aqueous solution): stable

Q: For Na2B10H10 [reference compound], which “tumor uptake begins at (initial tumor boron concentration)” value ([1]; FIG. 4, BALB/c mice bearing EMT6 tumors, tail vein injection) is on record?
A: Its value is 10 µg/g.
